Structures are written as SMILES.

A word on the IC50: it is the concentration that gives 50% inhibition.

This assay deals with γ-secretase. Nature of the assay: Cellular γ-secretase assay (inhibition of Aβ42 secretion, AlphaLisa). Particulars: human neuroglioma H4 cells overexpressing human APP695 Swedish double mutation, 24 h compound incubation. The assay is classed as cell-based. As to the method:
Human neuroglioma H4 cells overexpressing human APP695 with the Swedish double mutation (K595N/M596L) were plated at 30,000 cells/well/100 μL in 96-well plates in IMDM containing 10% FCS, 0.2 mg/L Hygromycin B and incubated at 37° C., 5% CO2. 3-4 h post plating, compounds are a diluted in media and 50 μL is added as […] concentrate to achieve the final concentration. Compound incubation is performed for 24 h. Final doses typically range from 4 μM down to 0.0013 μM in half-log steps resulting in an eight-point dose response curve.
Appropriate controls using vehicle only and reference compound were applied to this assay. The final concentration of Me2SO was 0.4%.
After incubation at 37° C., 5% CO2, the supernatant was subjected to quantification of secreted Aβ42 by the means of an AlphaLisa assay kit (Human Amyloid beta 1-42 Kit: Cat # AL203C, Perkin Elmer). 20 μL of the cell culture supernatant was transferred to an assay plate. Then 10 μL, of a mixture of the AlphaLisa coupled capture antibody and the biotinylated detection antibody was added and incubated for 3 h at RT while softly shaking the assay plate. After a further addition of 20 μL of the Donor beads the assay plate was incubated for 30 min at RT and constant shaking without exposure to direct light. The assay plate was then read on a Paradigm AlphaLisa Reader using the build-in program with excitation at 680 nm and emission at 570 nm. The measured signals were then used to calculate IC50 values for inhibition of Aβ42 secretion by nonlinear regression fit analysis using XLfit 5.3 software (from IDBS company).
For orientation: Bead proximity is the source of the signal in Alpha formats.
For `COc1cc(N2C[C@H]3CC[C@@H](C2)[C@@H]3Nc2nc3n(n2)CCO[C@@H]3c2ccc(F)c(F)c2F)ccn1` (single isomer, unassigned) [Example 31], the midpoint of inhibition, the IC50, lay at 52 nM. In other words, the double-digit nanomolar range.
The value for `Cc1cc(N2C[C@H]3CC[C@@H](C2)[C@@H]3Nc2nc3n(n2)CCCO[C@@H]3c2ccc(F)cc2F)ncn1` (single isomer, unassigned) [Example 8] was 74.9 nM; that for `COc1cc(N2C[C@H]3CC[C@@H](C2)[C@@H]3Nc2nc3n(n2)CCCOC3c2cc(F)cc(Cl)c2)ccn1` (single isomer, unassigned) [Example 36] was 12.9 nM.
For the molecule `COc1cc(N2C[C@H]3CC[C@@H](C2)[C@@H]3Nc2nc3n(n2)CCCOC3c2cccc(F)c2F)cnn1` (single isomer, unassigned) [Example 2], half-maximal inhibition (IC50) was put at 51.1 nM. This IC50 is about 4-fold higher than that of the molecule before.
Take `Cc1cc(N2C[C@H]3CC[C@@H](C2)[C@@H]3Nc2nc3n(n2)CCCOC3c2cc(F)cc(Cl)c2)ncn1` (single isomer, unassigned) [Example 34]: inhibition was half-maximal at 19.6 nM (IC50).
As for `Cc1cc(N2C[C@H]3CC[C@@H](C2)[C@@H]3Nc2nc3n(n2)CCCOC3c2ccc(F)c(F)c2F)ncn1` (single isomer, unassigned) [Example 40], the IC50 was found to be 19.2 nM.
Then `Cc1cc(N2C[C@H]3CC[C@@H](C2)[C@@H]3Nc2nc3n(n2)CCCO[C@@H]3c2cc(F)cc(Cl)c2)cnn1` [Example 15, (9R)-9-(3-chloro-5-fluoro-phenyl)-N-[(1R,5S)-3-(6-methylpyridazin-4-yl)-3-azabicyclo[3.2.1]octan-8-yl]-5,6,7,9-tetrahydro-[1,2,4]triazolo[5,1-c][1,4]oxazepin-2-amine], with 23.9 nM.
The value for `Cc1cc(N2C[C@H]3CC[C@@H](C2)[C@@H]3Nc2nc3n(n2)CCCOC3c2cc(F)cc(Cl)c2)cnn1` (single isomer, unassigned) [Example 16] was 62.6 nM.
`COc1cc(N2C[C@H]3CC[C@@H](C2)[C@@H]3Nc2nc3n(n2)CCCOC3c2ccc(F)c(F)c2F)ccn1` (single isomer, unassigned) [Example 38] had an IC50 of 12.7 nM.
Then `COc1cc(N2C[C@H]3CC[C@@H](C2)[C@@H]3Nc2nc3n(n2)CCO[C@@H]3c2ccc(F)c(F)c2F)cnn1` [Example 27, (8R)—N-[(1R,5S)-3-(6-methoxypyridazin-4-yl)-3-azabicyclo[3.2.1]octan-8-yl]-8-(2,3,4-trifluorophenyl)-6,8-dihydro-5H-[1,2,41]triazolo[5,1-c][1,4]oxazin-2-amine], with 77.4 nM; and `COc1cc(N2C[C@H]3CC[C@@H](C2)[C@@H]3Nc2nc3n(n2)CCCOC3c2ccc(F)c(F)c2F)cnn1` (single isomer, unassigned) [Example 14], with 45.1 nM; and `COc1cc(N2C[C@H]3CC[C@@H](C2)[C@@H]3Nc2nc3n(n2)CCCO[C@@H]3c2cc(F)cc(Cl)c2)ccn1` (single isomer, unassigned) [Example 35], with 6.58 nM.
Consider `COc1cc(N2C[C@H]3CC[C@@H](C2)[C@@H]3Nc2nc3n(n2)CCCO[C@@H]3c2cccc(F)c2F)cnn1` (single isomer, unassigned) [Example 1], for which the IC50 was 84.7 nM. Compared with the last molecule, the IC50 is about 13-fold higher.
`Cc1cc(N2C[C@H]3CC[C@@H](C2)[C@@H]3Nc2nc3n(n2)CCCO[C@@H]3c2ccc(F)c(F)c2F)ncn1` (single isomer, unassigned) [Example 39] displayed an IC50 of 43.9 nM.
Consider `COc1cc(N2C[C@H]3CC[C@@H](C2)[C@@H]3Nc2nc3n(n2)CCCO[C@@H]3c2cc(F)cc(Cl)c2)cnn1` (single isomer, unassigned) [Example 19], for which the IC50 amounted to 13.2 nM.
Take `COc1cc(N2C[C@H]3CC[C@@H](C2)[C@@H]3Nc2nc3n(n2)CCOC3c2ccc(F)c(F)c2F)cnn1` (single isomer, unassigned) [Example 28]: the IC50 amounted to 95.9 nM. Against the preceding molecule, the IC50 is about 7.3-fold higher.
As for `COc1cc(N2C[C@H]3CC[C@@H](C2)[C@@H]3Nc2nc3n(n2)CCCO[C@@H]3c2ccc(F)cc2F)cnn1` [Example 3, (9R)-9-(2,4-difluorophenyl)-N-[(1R,5S)-3-(6-methoxypyridazin-4-yl)-3-azabicyclo[3.2.1]octan-8-yl]-5,6,7,9-tetrahydro-[1,2,4]triazolo[5,1-c][1,4]oxazepin-2-amine], half-maximal inhibition (IC50) required 87.4 nM. This IC50 and that of the molecule before are within 1.5-fold of each other.
Regarding `Cc1cc(N2C[C@H]3CC[C@@H](C2)[C@@H]3Nc2nc3n(n2)CCCOC3c2ccc(F)cc2F)ncn1` (single isomer, unassigned) [Example 10], the IC50 was 71.8 nM.
Consider `Cc1cc(N2C[C@H]3CC[C@@H](C2)[C@@H]3Nc2nc3n(n2)CCO[C@@H]3c2cc(F)cc(Cl)c2)ncn1` [Example 25, (8R)-8-(3-chloro-5-fluoro-phenyl)-N-[(1R,5S)-3-(6-methylpyrimidin-4-yl)-3-azabicyclo[3.2.1]octan-8-yl]-6,8-dihydro-5H-[1,2,4]triazolo[5,1-c][1,4]oxazin-2-amine], for which the IC50 was determined as 20.8 nM. This IC50 is about 3.5-fold lower than that of the molecule before.
`Cc1cc(N2C[C@H]3CC[C@@H](C2)[C@@H]3Nc2nc3n(n2)CCOC3c2ccc(F)c(F)c2F)ncn1` (single isomer, unassigned) [Example 24] displayed an IC50 of 78.9 nM.
The molecule `Cc1cc(N2C[C@H]3CC[C@@H](C2)[C@@H]3Nc2nc3n(n2)CCCO[C@@H]3c2ccc(F)c(F)c2F)cnn1` (single isomer, unassigned) [Example 17] returned an IC50 of 82.3 nM.
Molecule `Cc1cc(N2C[C@H]3CC[C@@H](C2)[C@@H]3Nc2nc3n(n2)CCCO[C@@H]3c2cc(F)cc(F)c2)ncn1` (single isomer, unassigned) [Example 7] showed an IC50 of 43.3 nM.
`Cc1cc(N2C[C@H]3CC[C@@H](C2)[C@@H]3Nc2nc3n(n2)CCCOC3c2cc(F)cc(F)c2)ncn1` (single isomer, unassigned) [Example 9]: half-maximal inhibition (IC50) required 21.7 nM.
`Cc1cc(N2C[C@H]3CC[C@@H](C2)[C@@H]3Nc2nc3n(n2)CCCOC3c2cccc(F)c2F)ncn1` (single isomer, unassigned) [Example 6] yielded a half-maximal inhibitory concentration (IC50) of 62.3 nM.
On to `Cc1cc(N2C[C@H]3CC[C@@H](C2)[C@@H]3Nc2nc3n(n2)CCCO[C@@H]3c2cc(F)cc(Cl)c2)ncn1` (single isomer, unassigned) [Example 33], for which the concentration for half-maximal inhibition (IC50) came out at 10.9 nM.
Regarding `COc1cc(N2C[C@H]3CC[C@@H](C2)[C@@H]3Nc2nc3n(n2)CCCO[C@@H]3c2cc(F)cc(F)c2)cnn1` [Example 11, (9R)-9-(3,5-difluorophenyl)-N-[(1R,5S)-3-(6-methoxypyridazin-4-yl)-3-azabicyclo[3.2.1]octan-8-yl]-5,6,7,9-tetrahydro-[1,2,4]triazolo[5,1-c][1,4]oxazepin-2-amine], the IC50 was 22.1 nM.
In turn, `COc1cc(N2C[C@H]3CC[C@@H](C2)[C@@H]3Nc2nc3n(n2)CCCOC3c2ccc(F)cc2F)cnn1` (single isomer, unassigned) [Example 4] registered an IC50 of 76.2 nM.
In turn, `COc1cc(N2C[C@H]3CC[C@@H](C2)[C@@H]3Nc2nc3n(n2)CCCO[C@@H]3c2ccc(F)c(F)c2F)ccn1` [Example 37, (9R)—N-[(1R,5S)-3-(2-methoxy-4-pyridyl)-3-azabicyclo[3.2.1]octan-8-yl]-9-(2,3,4-trifluorophenyl)-5,6,7,9-tetrahydro-[1,2,4]triazolo[5,1-c][1,4]oxazepin-2-amine] returned a half-inhibitory concentration (IC50) of 15.7 nM.
As to `Cc1cc(N2C[C@H]3CC[C@@H](C2)[C@@H]3Nc2nc3n(n2)CCO[C@@H]3c2ccc(F)c(F)c2F)ncn1` [Example 23, (8R)—N-[(1R,5S)-3-(6-methylpyrimidin-4-yl)-3-azabicyclo[3.2.1]octan-8-yl]-8-(2,3,4-trifluorophenyl)-6,8-dihydro-5H-[1,2,4]triazolo[5,1-c][1,4]oxazin-2-amine], the IC50 was found to be 59.7 nM.
The value for `COc1cc(N2C[C@H]3CC[C@@H](C2)[C@@H]3Nc2nc3n(n2)CCCOC3c2cc(F)cc(F)c2)cnn1` (single isomer, unassigned) [Example 12] was 72.3 nM; that for `Cc1cc(N2C[C@H]3CC[C@@H](C2)[C@@H]3Nc2nc3n(n2)CCCO[C@@H]3c2cccc(F)c2F)ncn1` (single isomer, unassigned) [Example 5] was 47.7 nM; that for `COc1cc(N2C[C@H]3CC[C@@H](C2)[C@@H]3Nc2nc3n(n2)CCCOC3c2cc(F)cc(Cl)c2)cnn1` (single isomer, unassigned) [Example 20] was 34.5 nM.
The value for `COc1cc(N2C[C@H]3CC[C@@H](C2)[C@@H]3Nc2nc3n(n2)CCOC3c2cc(F)cc(Cl)c2)cnn1` (single isomer, unassigned) [Example 22] was 71.8 nM; that for `COc1cc(N2C[C@H]3CC[C@@H](C2)[C@@H]3Nc2nc3n(n2)CCO[C@@H]3c2cc(F)cc(Cl)c2)cnn1` [Example 21, (8R)-8-(3-chloro-5-fluoro-phenyl)-N-[(1R,5S)-3-(6-methoxypyridazin-4-yl)-3-azabicyclo[3.2.1]octan-8-yl]-6,8-dihydro-5H-[1,2,4]triazolo[5,1-c][1,4]oxazin-2-amine] was 16.6 nM.
Molecule `COc1cc(N2C[C@H]3CC[C@@H](C2)[C@@H]3Nc2nc3n(n2)CCCO[C@@H]3c2ccc(F)c(F)c2F)cnn1` (single isomer, unassigned) [Example 13] displayed an IC50 of 21.8 nM. This IC50 and that of the molecule before are within 1.5-fold of each other.

For the origin of these results see patent publication US12084461B2, “Bicyclic heteroaryl derivatives” (Hoffmann-La Roche Inc., priority 2018, dated 2024).
